Laboratory results: the supplement of paper PMC12420376

Experiments:
OVCAR8 = assay: drug sensitivity score (DSS2) on cancer cell count; higher = more sensitive; extreme values may be limits of the assay; conditions: 72 h
Procedure, shortened: (§1)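 Ovarian cancer cells grown alone or 1:1 with lung or skin fibroblasts in direct co-culture were treated for 72 h on 384-well plates carrying 528 approved and investigational compounds at 5 concentrations. Fixed cells were stained for CK8/18 with Hoechst and imaged to count cancer cells. A drug sensitivity score was then derived in Breeze from logistic curve fits.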

KURAMOCHI = assay: as above; conditions: 72 h
Procedure, shortened: as §1

[1] = co-cultured fibroblast: BJHTERT
[2] = co-cultured fibroblast: none (monoculture)

| SMILES | drug sensitivity score (OVCAR8; [1]) | drug sensitivity score (OVCAR8; co-cultured fibroblast: WI38) | drug sensitivity score (OVCAR8; [2]) | drug sensitivity score (KURAMOCHI; [1]) | drug sensitivity score (KURAMOCHI; co-cultured fibroblast: WI38) | drug sensitivity score (KURAMOCHI; [2]) |
| --- | --- | --- | --- | --- | --- | --- |
| C[C@H]1Oc2cc(cnc2N)-c2c(nn(C)c2C#N)CN(C)C(=O)c2ccc(F)cc21 | 0.4 DSS | 8.7 DSS | 5.7 DSS | 0.7 DSS | 0 DSS | 0 DSS |
| COc1nc(N)nc2c1ncn2[C@@H]1O[C@H](CO)[C@@H](O)[C@@H]1O [Nelarabine] | 1 DSS | 3.4 DSS | 0.3 DSS | 0 DSS | 0 DSS | 0 DSS |
| CN(Cc1cnc2nc(N)nc(N)c2n1)c1ccc(C(=O)N[C@@H](CCC(=O)O)C(=O)O)cc1 [Methotrexate] | 12.3 DSS | 12.4 DSS | 27.7 DSS | 5.9 DSS | 0 DSS | 19.7 DSS |
| COCCNCc1ccc(-c2cc3nccc(Oc4ccc(NC(=O)C5(C(=O)Nc6ccc(F)cc6)CC5)cc4F)c3s2)nc1 [Sitravatinib] | 0 DSS | 1.6 DSS | 1.8 DSS | 3.1 DSS | 5.8 DSS | 0 DSS |
| Nc1cc(F)ccc1NC(=O)c1ccc(CNC(=O)/C=C/c2cccnc2)cc1 [Tucidinostat] | 8 DSS | 4.4 DSS | 11.8 DSS | 7.6 DSS | 11.2 DSS | 9.7 DSS |
| Cc1[nH]nc(C(F)(F)F)c1Cc1sc2c(c1C(=O)N1C[C@](C)(O)CO1)c(=O)n(C)c(=O)n2C(C)C [AZD3965] | 0 DSS | 0 DSS | 0 DSS | 0 DSS | 1.7 DSS | 0 DSS |
| Nc1ccccc1NC(=O)c1ccc(CNc2nccc(-c3cccnc3)n2)cc1 [Mocetinostat] | 14 DSS | 19.3 DSS | 21.7 DSS | 10.4 DSS | 13.9 DSS | 13.7 DSS |
| CNc1ncc2cc(-c3cc(NC(=O)NCCC(C)(C)C)c(F)cc3C)c(C)nc2n1 | 13.1 DSS | 15.7 DSS | 14.7 DSS | 12.7 DSS | 10.2 DSS | 9.9 DSS |
| CN1CCN(C2CCC(n3cc(-c4ccc(Oc5ccccc5)cc4)c4c(N)ncnc43)CC2)CC1 (stereo not given) | 12.9 DSS | 11.4 DSS | 18.6 DSS | 19.5 DSS | 17.8 DSS | 20.5 DSS |
| Cc1nc(Nc2n[nH]c3c2CN(C(=O)N[C@H](CN(C)C)c2ccccc2)C3(C)C)c2sccc2n1 | 20.8 DSS | 9.4 DSS | 15.5 DSS | 21 DSS | 24.6 DSS | 19.4 DSS |
| O=C(CCNC(=O)c1ccc(OC(F)(F)F)cc1)N[C@@H]1CCCc2ccccc21 [ML390] | 8.5 DSS | 0 DSS | 8.1 DSS | 3.4 DSS | 2.9 DSS | 4 DSS |
| CN(C)Cc1c(C(=O)NCCOc2ccc(C(=O)NO)cc2)oc2ccccc12 [Abexinostat] | 25.3 DSS | 18.5 DSS | 27.9 DSS | 17.2 DSS | 20.6 DSS | 15.7 DSS |
| Cc1cnc(Nc2ccc(OCCN3CCCC3)cc2)nc1Nc1cccc(S(=O)(=O)NC(C)(C)C)c1 [Fedratinib] | 4.9 DSS | 5.2 DSS | 7.2 DSS | 7.9 DSS | 3.7 DSS | 2.8 DSS |
| C=C1C[C@@H]2CC[C@@]34C[C@H]5O[C@H]6[C@@H](O3)[C@H]3O[C@H](CC[C@@H]3O[C@H]6[C@H]5O4)CC(=O)C[C@@H]3[C@@H](OC)[C@@H](C[C@H](O)CN)O[C@H]3C[C@H]3O[C@@H](CC[C@@H]1O2)C[C@@H](C)C3=C [Eribulin] | 27.5 DSS | 29.9 DSS | 26.6 DSS | 28.8 DSS | 26.9 DSS | 27.5 DSS |
| CC[C@H](C)C(=O)O[C@H]1C[C@H](O)C=C2C=C[C@H](C)[C@H](CC[C@@H](O)C[C@@H](O)CC(=O)O)[C@H]21 [Pravastatin] | 0 DSS | 1.9 DSS | 0 DSS | 0 DSS | 0 DSS | 0 DSS |
| CCOc1ccccc1-n1c(C(C)N2CCN(C(=O)COc3ccc(Cl)cc3)CC2)nc2ccccc2c1=O (stereo not given) [Erastin] | 17.9 DSS | 18.6 DSS | 7.4 DSS | 3.6 DSS | 3.9 DSS | 2.6 DSS |
| NS(=O)(=O)NCCNc1nonc1/C(=N/O)Nc1ccc(F)c(Br)c1 [Epacadostat] | 0 DSS | 0 DSS | 0.6 DSS | 0 DSS | 0 DSS | 0 DSS |
| CN1CCN(C2CCN(C(=O)Nc3cc(Oc4ccc(NC(=O)C5(C(=O)Nc6ccc(F)cc6)CC5)c(F)c4)ccn3)CC2)CC1 [Golvatinib] | 0 DSS | 0 DSS | 0 DSS | 0 DSS | 0 DSS | 0 DSS |
| Cc1ccc(NS(=O)(=O)c2cccc(C#N)c2)c2[nH]cc(C#N)c12 [E7820] | 5.4 DSS | 0 DSS | 12.8 DSS | 6.5 DSS | 9.7 DSS | 15.8 DSS |
| Nc1ncnc2c1c(COc1cccc(Cl)c1)nn2C1CCOCC1 | 0 DSS | 0 DSS | 0 DSS | 0 DSS | 0 DSS | 0 DSS |
| CCNC(=O)c1noc(-c2cc(C(C)C)c(O)cc2O)c1-c1ccc(CN2CCOCC2)cc1 [Luminespib] | 28.3 DSS | 29.8 DSS | 29.9 DSS | 19.7 DSS | 20.9 DSS | 22.9 DSS |
| COc1cc2/c(=N/c3ccc(Br)cc3F)nc[nH]c2cc1OCC1CCN(C)CC1 [Vandetanib] | 0 DSS | 0 DSS | 2.1 DSS | 0 DSS | 2.6 DSS | 10.6 DSS |
| O=C(Nc1ccc2[nH]nc(-c3ccncc3)c2c1)[C@@H]1CCN(CC(=O)N2CCN(c3ccc(-c4ncccn4)cc3)CC2)C1 | 16.6 DSS | 10.2 DSS | 15.5 DSS | 13.5 DSS | 12.4 DSS | 15.5 DSS |
| Cc1sc2c(c1C)C(c1ccc(Cl)cc1)=N[C@@H](CC(=O)Nc1ccc(OCCOCCOCCOCCNc3cccc4c3C(=O)N(C3CCC(=O)NC3=O)C4=O)cc1)c1nnc(C)n1-2 (stereo not given in full) [ARV-825] | 19.6 DSS | 14.7 DSS | 18.8 DSS | 6.9 DSS | 7.9 DSS | 4.5 DSS |
| COc1ccc(S(=O)(=O)Nc2cccnc2Nc2ccc(O)cc2)cc1 [ABT-751] | 18.7 DSS | 15.9 DSS | 19.3 DSS | 14.5 DSS | 17.3 DSS | 17.9 DSS |
